Columns and labels:
15-PGDH in A549 cells = target: T1, 15-PGDH in A549 cells (Homo sapiens, UniProt P15428); assay: A549 cellular 15-PGDH assay (PGE2 accumulation, HTRF); type: cell-based; conditions: interleukin-stimulated, inhibitor 24 hrs, PGE2 by competitive HTRF, read-out: A549 Cell Assay IC50
T1 construct: endogenous in cells; host or cells: A549
T1 sequence (P15428 1-266): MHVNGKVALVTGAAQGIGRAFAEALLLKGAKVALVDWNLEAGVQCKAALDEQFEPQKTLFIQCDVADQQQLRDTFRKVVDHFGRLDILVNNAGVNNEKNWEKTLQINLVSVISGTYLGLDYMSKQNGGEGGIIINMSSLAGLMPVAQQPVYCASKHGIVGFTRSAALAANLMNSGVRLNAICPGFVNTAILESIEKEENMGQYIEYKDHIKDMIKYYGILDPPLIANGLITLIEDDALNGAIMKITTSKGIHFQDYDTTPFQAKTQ
Method in brief: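 IL-13-stimulated A549 lung carcinoma cells released PGE2, which was measured in supernatants by competitive HTRF with a Eu-cryptate anti-PGE2 antibody and labelled PGE2. Signal falls as PGE2 rises. IC50 values were derived from the binding data.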

[1] = target: T2, human recombinant 15-PGDH (Homo sapiens, UniProt P15428); assay: Recombinant 15-PGDH enzymatic inhibition assay (PGDH-Lumi, NADH signal); type: biochemical; conditions: recombinant 15-PGDH; 15 min pre-incubation, 60 min reaction with PGE2 and NAD+, NADH signal
T2 sequence (P15428 1-266): T1 sequence (P15428 1-266)
Method in brief: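 Recombinant 15-PGDH pre-incubated 15 min at room temperature with compound (22 concentrations, 2-fold dilutions) in 50 mM Tris pH 7.5, 0.01% Tween-20, […].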

Row | SMILES | IC50 (15-PGDH in A549 cells) [nM] | IC50 [1] [nM]
1 | Cn1cc2cc(-c3ccc4cc([C@H](CO)C5CC(F)(F)C5)sc4n3)cnc2n1 (single isomer, unassigned) [Compound B80S] | 0.339 | 1.16
2 | Cn1cc2cc(-c3ccc4c(Cl)c([C@]5(O)C[C@@H](C(F)(F)F)C5)sc4n3)cnc2n1 [Compound C75C, cis-1-(3-chloro-6-(2-methyl-2H-pyrazolo[3,4-b]pyridin-5-yl)thieno[2,3-b]pyridin-2-yl)-3-(trifluoromethyl)cyclobutanol] | 1.07 | 0.707
3 | Cn1cc2cc(-c3ccc4cc([C@H](O)C5CC5)sc4n3)cnc2n1 (single isomer, unassigned) [Compound B16R] | 0.149 | 0.325
4 | O[C@@H](c1cc2ccc(-c3cncnc3)nc2s1)C1CC(F)(F)C1 (single isomer, unassigned) [Compound B57R] | 0.657 | 0.32
5 | Cn1cc2cc(-c3ncc4cc([C@]5(O)C[C@@H](C(F)(F)F)C5)sc4n3)cnc2n1 [Compound C71C, cis-1-(2-(2-methyl-2H-pyrazolo[3,4-b]pyridin-5-yl)thieno[2,3-d]pyrimidin-6-yl)-3-(trifluoromethyl)cyclobutanol] | 0.142 | 0.54
6 | Cn1cc2cc(-c3ccc4cc([C@]5(O)C[C@]6(CC6(F)F)C5)sc4n3)cnc2n1 (single isomer, unassigned) [Compound C88C, cis-1,1-difluoro-5-(6-(2-methyl-2H-pyrazolo[3,4-b]pyridin-5-yl)thieno[2,3-b]pyridin-2-yl)spiro[2.3]hexan-5-ol] | 0.455 | 0.503
7 | Cn1cc2cc(-c3ncc4cc([C@@H](O)C5CC(F)(F)C5)sc4n3)cnc2n1 (single isomer, unassigned) [Compound B75S] | 12.5 | 25.4
8 | Cn1cc(-c2ncc3cc([C@]4(O)C[C@@H](C(F)(F)F)C4)sc3n2)cn1 [Compound C120C, cis-1-(2-(1-methyl-1H-pyrazol-4-yl)thieno[2,3-d]pyrimidin-6-yl)-3-(trifluoromethyl)cyclobutanol] | 66.7 | 101
9 | [2H][C@](O)(c1cc2ccc(-c3cnc4nn(C)cc4c3)nc2s1)C1CC(F)(F)C1 (single isomer, unassigned) [Compound B79R] | 0.0094 | 0.399
10 | Cn1cc2cc(-c3ccc4cc([C@H](O)[C@H]5CC5(F)F)sc4n3)cnc2n1 (single isomer, unassigned) [Compound B85RR] | 0.704 | 0.47
11 | Cc1cn2cc(-c3ccc4cc([C@H](O)C5CC(F)(F)C5)sc4n3)ccc2n1 (single isomer, unassigned) [Compound B48R] | 1.77 | 0.4
12 | Cn1nnc2cc(-c3ccc4cc([C@H](O)C5CC(F)(F)C5)sc4n3)cnc21 [Compound B82R, (R)-(3,3-difluorocyclobutyl)(6-(3-methyl-3H-[1,2,3]triazolo[4,5-b]pyridin-6-yl)thieno[2,3-b]pyridin-2-yl)methanol] | 0.0124 | 0.398
13 | Cc1nc2ncc(-c3ccc4cc(C5(O)CC(F)(F)C5)sc4n3)cc2o1 [Compound C34, 3,3-difluoro-1-(6-(2-methyl[1,3]oxazolo[4,5-b]pyridin-6-yl)thieno[2,3-b]pyridin-2-yl)cyclobutanol] | 1.35 | 0.78
14 | Cn1cc2cc(-c3ccc4ccc([C@H](O)C5CC(F)(F)C5)cc4n3)cnc2n1 (single isomer, unassigned) [Compound D1R] | 0.0822 | 0.605
15 | Cn1cc2cc(-c3ncc4cc(C5(O)CC6(CC6)C5)sc4n3)cnc2n1 [Compound C107, 5-(2-(2-methyl-2H-pyrazolo[3,4-b]pyridin-5-yl)thieno[2,3-d]pyrimidin-6-yl)spiro[2.3]hexan-5-ol] | 0.989 | 0.49
16 | Cn1cc2cc(-c3cnc4cc([C@H](O)C5CC(F)(F)C5)sc4n3)cnc2n1 [Compound B92R, (R)-(3,3-difluorocyclobutyl)(3-(2-methyl-2H-pyrazolo[3,4-b]pyridin-5-yl)thieno[2,3-b]pyrazin-6-yl)methanol] | 0.409 | 0.511
17 | Cn1nnc2cc(-c3ncc4cc([C@]5(O)C[C@](C)(C#N)C5)sc4n3)cnc21 (single isomer, unassigned) [Compound C98T, trans-3-hydroxy-1-methyl-3-(2-(3-methyl-3H-[1,2,3]triazolo[4,5-b]pyridin-6-yl)thieno[2,3-d]pyrimidin-6-yl)cyclobutanecarbonitrile] | 2.66 | 1.73
18 | Cn1cnc(-c2ccc3cc(C(O)C4CC(F)(F)C4)sc3n2)cc1=O (centres unmarked) [Compound B49, 6-(2-((3,3-difluorocyclobutyl)(hydroxy)methyl)thieno[2,3-b]pyridine-6-yl)-3-methylpyrimidin-4(3H)-one] | 0.739 | 0.608
19 | Cc1nc2cc(-c3ccc4cc([C@H](O)C5CC(F)(F)C5)sc4n3)ccc2o1 (single isomer, unassigned) [Compound B46R] | 0.697 | 0.277
20 | Cc1nc2ccc(-c3ccc4cc([C@H](O)C5CC(F)(F)C5)sc4n3)cc2o1 (single isomer, unassigned) [Compound B51R] | 0.357 | 0.164
21 | CCn1cc2cc(-c3ccc4cc([C@H](O)C5CC(F)(F)C5)sc4n3)cnc2n1 (single isomer, unassigned) [Compound B53R] | 0.354 | 0.222
22 | Cn1cc2cc(-c3ccc4cc([C@]5(O)C[C@@]6(CC6(F)F)C5)sc4n3)cnc2n1 (single isomer, unassigned) [Compound C88T, trans-1,1-difluoro-5-(6-(2-methyl-2H-pyrazolo[3,4-b]pyridin-5-yl)thieno[2,3-b]pyridin-2-yl)spiro[2.3]hexan-5-ol] | 0.589 | 0.347
23 | CC(C)n1cc2cc(-c3ccc4cc([C@@H](O)C5CC(F)(F)C5)sc4n3)cnc2n1 (single isomer, unassigned) [Compound B64S] | 0.483 | 0.597
24 | Cn1cc2cc(-c3ccc4sc([C@@H](O)C5CC(F)(F)C5)nc4n3)cnc2n1 (single isomer, unassigned) [Compound B74S] | 4.48 | 24.1
25 | Cc1cn2ccc(-c3ccc4cc(C5(O)CC(F)(F)C5)sc4n3)cc2n1 [Compound C44, 3,3-difluoro-1-(6-(2-methylimidazo[1,2-a]pyridin-7-yl)thieno[2,3-b]pyridin-2-yl)cyclobutanol] | 6.17 | 7.56

Further lines, results first:

Row | IC50 (15-PGDH in A549 cells) [nM] | IC50 [1] [nM] | SMILES
26 | 0.515 | 0.365 | Cn1cc2cc(-c3ccc4cc([C@H](O)[C@H]5C[C@H](C(F)(F)F)C5)sc4n3)cnc2n1 (single isomer, unassigned) [Compound B84RT]
27 | 2.69 | 0.641 | Cn1cc2cc(-c3ccc4nc([C@]5(O)C[C@@H](C(F)F)C5)sc4n3)cnc2n1 [Compound C81C, cis-3-(difluoromethyl)-1-(5-(2-methyl-2H-pyrazolo[3,4-b]pyridin-5-yl)[1,3]thiazolo[5,4-b]pyridin-2-yl)cyclobutanol]
28 | 7.99 | 1.86 | Cn1ccc2cc(-c3ccc4cc([C@@H](O)C5CC(F)(F)C5)sc4n3)ccc2c1=O (single isomer, unassigned) [Compound B50S]
29 | > 750 | 3860 | CO[C@H]1CC[C@]1(O)c1cc2ccc(-c3cnc4nn(C)cc4c3)nc2s1 (single isomer, unassigned) [Compound C70RS]
30 | 49.1 | 33.8 | Cn1cc2cc(-c3ncc4sc([C@]5(O)C[C@@H](C(F)F)C5)cc4n3)cnc2n1 [Compound C89C, cis-3-(difluoromethyl)-1-(2-(2-methyl-2H-pyrazolo[3,4-b]pyridin-5-yl)thieno[3,2-d]pyrimidin-6-yl)cyclobutanol]
31 | 0.492 | 0.47 | Cn1cc2cc(-c3ccc4cc([C@H](O)[C@H]5C[C@@H](C(F)(F)F)C5)sc4n3)cnc2n1 (single isomer, unassigned) [Compound B84RC]
32 | 0.406 | 0.35 | Cn1cc2cc(-c3ccc4cc([C@@H](O)C5CC(F)(F)C5)sc4n3)cnc2n1 (single isomer, unassigned) [Compound B30S]
33 | 1.09 | 0.544 | Cn1cc2cc(-c3ccc4cc([C@H](O)C56CC(C(F)(F)F)(C5)C6)sc4n3)cnc2n1 (single isomer, unassigned) [Compound B91R]
34 | 1.1 | 2.19 | Cn1nnc2cc(-c3ccc4cc(C5(O)CC(F)(F)C5)sc4n3)cnc21 [Compound C51, 3,3-difluoro-1-(6-(3-methyl-3H-[1,2,3]triazolo[4,5-b]pyridin-6-yl)thieno[2,3-b]pyridin-2-yl)cyclobutanol]
35 | 1.07 | 0.463 | Cn1cc2cc(-c3ccc4cc(C(O)C5COC5)sc4n3)cnc2n1 (centres unmarked) [Compound B28, (6-(2-methyl-2H-pyrazolo[3,4-b]pyridin-5-yl)thieno[2,3-b]pyridin-2-yl)(oxetan-3-yl)methanol]
36 | 0.52 | 0.343 | Cn1ccc2cc(-c3ccc4cc([C@H](O)C5CC(F)(F)C5)sc4n3)ccc2c1=O (single isomer, unassigned) [Compound B50R]
37 | 0.857 | 0.952 | Cc1c([C@H](O)C2CCOCC2)sc2nc(-c3cnc4nn(C)cc4c3)ccc12 (single isomer, unassigned) [Compound B90R]
